{"source": "patent US11963939B2", "about": "“Use of N-acetylcysteine to treat central nervous system disorders” (Neuronasal, Inc., priority 2017, dated 2024)", "key": {"total glutathione": {"system": "total glutathione", "assay": "Total glutathione levels in striatum of collagenase-infused ICH mice by HPLC", "format": "in vivo, mouse", "conditions": "ICH mice after NAC treatment", "source_text": "(§1) Total glutathione levels were unchanged after NAC treatment in ICH mice. […] FIG. 29 illustrates an experimental design to study the effect of NAC on total glutathione levels in the striatum of a collagenase infusion mouse model of ICH."}, "primary cortical neurons": {"system": "primary cortical neurons", "assay": "cells", "format": "cell-based, mouse", "conditions": "Mus musculus, Primary cortical neuron; 100 μM hemin, primary cortical neurons; read-out: EC50 for reduction of hemin-induced toxicity/ferroptosis", "protocol": "Primary cortical neuronal cultures: Primary cortical neurons were collected from embryonic (E15) CD1 mice. The cortices of the mice were dissected, homogenized, and plated in minimum essential medium containing 10% fetal bovine serum (FBS), 5% horse serum, and 1% penicillin/streptomycin in 96-well plates, 6-well plates, or 10-cm dishes. The neurons were maintained at 37° C. with 5% CO2. All experiments were conducted 24 hours after plating.\nIn vitro ICH model: Ferroptosis is a type of programmed cell death that is dependent on iron, and is characterized by the accumulation of lipid peroxides. Ferroptosis is genetically and biochemically distinct from other forms of regulated cell death such as apoptosis. Ferroptosis is initiated by the failure of the glutathione-dependent antioxidant defenses, resulting in unchecked lipid peroxidation and eventual cell death.\nCell death was induced in primary cortical neurons by treating the neurons with hemin, a blood breakdown product. For the neuroprotection studies, cells were treated with hemin (100 μM) in the presence of NAC (0.1 mM to 1mM), 6-hydroxy-2,5,7,8-tetramethylchroman-2-carboxylic acid (trolox; 0.1 μM to 100 μM), β-carotene (0.1 μM to 100 μM) α-lipoic acid (0.01 mM to 2 mM), glutathione ethyl ester (1 mM to 10 mM), oxothiazolidine-4-carboxylate (1 mM to 10 mM), cystamine (0.1 μM to 10 μM), or nordihydroguaiaretic acid (0.1 μM to 10 μM). Cell viability was analyzed 24 h after treatment. The cells were rinsed with warm phosphate-buffered saline (PBS) and assessed using an MTT assay. The fidelity of the MTT assays in measuring viability was verified by calcein-AM/ethidium homodimer-1 staining (Live/Dead assay).\nThe ability of NAC to protect cells was investigated in a hemin model of hemorrhagic stroke. The in vitro model of ICH involved the administration of hemin, a breakdown product of hemoglobin from lysed blood, to trigger cell death. Treatment of primary cortical neurons with 100 μM hemin induced widespread cell death through a ferroptotic mechanism, which was quantified with MTT and qualitatively observed using live/dead staining. Living cells were labeled with calcein-AM, and dead cells were labeled with ethidium homodimer. […] Scale bars: 100 μm.\nA systematic pharmacological screening of oxidized lipid species inhibitors in the context of hemin-induced cell death was performed in primary cortical neurons. Primary cortical neurons were co-treated with hemin and a non-specific or enzymatic lipid peroxidation inhibitor. The MTT assays were performed 18 h following the co-treatment."}, "Chac1": {"system": "Chac1", "assay": "Chac1 gene expression in ICH mice by quantitative RT-PCR", "format": "in vivo, mouse", "conditions": "ICH mice after NAC treatment", "source_text": "as §1, with “ICH. […] FIG. 31 illustrates that ICH-induced ATF4 dependent Chac1 degraded glutathione to 5-oxoproline.” for “ICH.”"}, "recombinant ALOX5": {"target": "T1, recombinant ALOX5 (Homo sapiens, UniProt P09917)", "T1 sequence (P09917 1-674)": "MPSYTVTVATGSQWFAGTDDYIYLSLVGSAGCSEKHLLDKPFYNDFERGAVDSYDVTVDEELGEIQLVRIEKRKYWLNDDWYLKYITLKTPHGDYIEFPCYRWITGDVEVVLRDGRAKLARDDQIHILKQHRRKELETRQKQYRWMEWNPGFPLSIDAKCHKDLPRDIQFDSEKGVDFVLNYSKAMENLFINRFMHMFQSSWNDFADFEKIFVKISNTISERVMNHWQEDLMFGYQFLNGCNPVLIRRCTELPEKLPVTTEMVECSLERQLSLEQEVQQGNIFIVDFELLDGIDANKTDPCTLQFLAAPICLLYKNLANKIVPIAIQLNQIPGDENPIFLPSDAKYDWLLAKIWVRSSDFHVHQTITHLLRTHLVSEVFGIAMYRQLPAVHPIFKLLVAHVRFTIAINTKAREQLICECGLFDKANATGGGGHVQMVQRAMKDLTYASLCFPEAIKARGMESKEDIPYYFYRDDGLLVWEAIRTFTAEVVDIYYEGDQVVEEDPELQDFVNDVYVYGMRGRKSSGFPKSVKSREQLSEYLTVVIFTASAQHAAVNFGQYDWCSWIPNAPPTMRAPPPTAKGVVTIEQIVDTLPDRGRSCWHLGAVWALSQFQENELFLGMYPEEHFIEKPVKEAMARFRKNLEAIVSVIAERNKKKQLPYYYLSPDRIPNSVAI", "assay": "Lipoxygenase UV/Vis-based IC50 assay with recombinant ALOX5", "format": "biochemical", "conditions": "test tube assay", "protocol": "Lipoxygenase UV/Vis-based IC50 assay: Inhibition potencies were determined by following the formation of conjugated diene products, 5-HpETE [ε=27000 M^−1 cm^−1 for AA turnover) at 234 nm using a UV/Vis spectrophotometer. All reaction mixtures were 2 mL in volume, and the reaction mixtures were constantly stirred using a magnetic stir bar at room temperature (23° C.). All reactions were carried out in a buffer containing 200 μM ATP and 10 μM AA. The AA concentration of a sample was verified by full turnover with soybean-1 lipoxygenase and quantifying the product concentration. Inhibitors were stored in DMSO at −20° C. Enzymatic reactions were initiated by adding approximately 100 nM-300 nM ammonium sulfate-precipitated wildtype enzyme. IC50 values were obtained by determining the enzymatic rate at a minimum of five inhibitor concentrations, plotting the enzymatic rate against inhibitor concentration, and performing a hyperbolic saturation curve fit. Inhibitor concentrations were assayed in duplicate or triplicate.\nSignificance was determined by two-way ANOVA and Bonferroni's post hoc test."}, "ALOX AP": {"system": "ALOX AP", "assay": "ALOX AP mRNA levels in hemin-treated primary cortical neurons (RT-PCR)", "format": "cell-based, mouse", "conditions": "NAC 1 mM", "protocol": "Quantitative real-time PCR: Total RNA was prepared using a NucleoSpin® RNA II kit. Duplex real-time PCR reactions were performed with gene expression assays using 6-carboxyfluorescein-labeled probes for ALOX5 (Mm 01182747_m1) and ALOX5AP (Mm 01218551_m1). Expression levels were normalized to β-actin gene expression levels, which were determined with a VIC™-labeled probe. All experiments were performed using a real-time PCR system.\nThe abilities of hemin and NAC to induce increases in ALOX5 and ALOX AP mRNA levels were examined. […] Consistent with the protein data (FIG. 17), hemin induced increases in ALOX AP and ALOX5 mRNA levels in a time-dependent manner."}}, "note": "pEC50: −log10 of the molar value.", "data": [{"smiles": "CC(=O)N[C@@H](CS)C(=O)O", "note": "[NAC, N-acetylcysteine]", "values": [{"measurement": "Lesion volume and functional recovery", "setting": "ICH model of rats; 40 mg/kg or 75 mg/kg, 2 h post-ICH", "result": "not effective in reducing lesion volume or improving functional recovery"}, {"measurement": "Toxicity of higher doses", "setting": "ICH model of rats; 300 mg/kg", "result": "caused significant toxicity in rats, including paralytic ileus and/or death"}, {"measurement": "Highest dose tolerated without toxicity", "setting": "ICH model of rats; ICH model", "result": 40, "unit": "mg/kg"}, {"measurement": "Total glutathione levels in striatum", "setting": "total glutathione", "result": "unchanged"}, {"measurement": "pEC50", "setting": "primary cortical neurons", "result": 3.30}, {"measurement": "ATF4-regulated Chac1", "setting": "Chac1", "result": "decreased after NAC treatment"}, {"measurement": "Inhibition of ALOX5 activity", "setting": "recombinant ALOX5", "result": "did not inhibit ALOX5 activity"}, {"measurement": "Hemin-induced ALOX AP expression", "setting": "ALOX AP", "result": "blocked the expression of ALOX AP"}]}]}
